Earlier results on one substance are cited in patent US12337056B2, “Topical compositions and methods” (MARY KAY INC., priority 2018, dated 2025).

For the series the following is noted: HyaClear Solution Presentation, Tri-K Industries, 2016.

In the case of Sodium hyaluronate, the skin barrier function entry is on record as “improve skin barrier function”, the skin desquamation result is given as “reduce skin desquamation”, the skin lubricity result is “increase skin lubricity” and the skin moisturization result is reported as “increase skin moisturization”. The skin roughness entry is given as “reduce skin roughness”.
